Assay results reported in patent US20240150340A1, “CDK Inhibitors And Their Use As Pharmaceuticals” (Prelude Therapeutics Incorporated, priority 2022, published 2024).

Tests used:
[1] = target: T1, CDK2/Cyclin E2 (Homo sapiens, UniProt P24941); experiment: CDK2/CyclinE2 Enzymatic Activity Assay (TR-FRET); format: biochemical; conditions: ATP 1 mM final, read-out: CDK2_E1 IC50
T1 construct: Recombinant protein complex CDK2/Cyclin E2, expressed from insect cell, was purchased from ProQinase
Experimental: CDK2/CyclinE2 Enzymatic Activity Assay
The inhibitory activity of compounds was evaluated in vitro using TR-FRET assay with white 384-well low volume microplate (Greiner Bio-One). CDK2/Cyclin E2 catalyzed phosphorylation of peptide in the presence and absence of compounds was measured and used in IC50 determination. Recombinant protein complex CDK2/Cyclin E2, expressed from insect cell, was purchased from ProQinase. Testing compounds were dissolved in DMSO at 1 mM and tested in 9-dose IC50 mode. The reaction mixture was prepared by mixing CDK2/CyclinE2 (1 nM final), ULight-4E-BP1 (50 nM final, Perkinelmer, TRF0128-D), and ATP (1 mM final) in assay buffer (20 mM of HEPES pH 7.4, 1 mM of EGTA, 0.05% BSA, 0.005% Tween 20, and 1 mM TCEP). The compound of interest in DMSO was added to each well in 3-fold serial dilution by dispenser (TECAN D300E) to make a 9.9 μL of reaction mixture. After 20 minutes preincubation at room temperature, 0.1 μL MgCl2 (10 mM final) was added to initiate the reaction. Following a 45 minute incubation at 37° C., the reaction was stopped by addition of 2 μL of quenching buffer consisting of Lance detection buffer (Perkinelmer CR97-100C), LANCE Ultra Europium-anti-P-4E-BP1 (Perkinelmer, TRF0216-D), EDTA, and incubated at room temperature for additional 60 minutes in the dark. The reaction signal was measured by Envision multimode plate reader (PerkinElmer, 2102-0010). IC50 values were determined by fitting the data to the standard 4 parameters with Hill Slope using GraphPad Prism software.

[2] = tested on: OVCAR3 p-RB; experiment: pRB ICW Assay in OVCAR3 Cells; format: cell-based; conditions: Homo sapiens, OVCAR-3, incubated with compound for 2 hours
Experimental: pRB ICW Assay in OVCAR3 Cells
OVCAR3 cells were maintained in RPMI (Corning, Catalog #: 10-040-CV) supplemented with 10% v/v FBS (Gibco, Catalog #: 26140-079), 1% v/v Penicillin Streptomycin (Gibco, Catalog #15140-122.) OVCAR3 cells grown at log phase were trypsinized, counted, and resuspended in fresh medium to reach a final density of 6.7e4 cells/mL and 75 μL of culture were dispensed into a 384-well plate (Falcon, cat #353962) using a Multidrop Combi dispenser (Thermo Scientific). The next day, compounds were dispensed as a 9-point, ½ log serial dilution using a Tecan digital dispenser (D300e), and cells were incubated with compound for 2 hours in a humidified incubator at 37° C. A reference compound at a final concentration of 10 μM was used as a control for maximum inhibition. Each compound was tested in duplicate for each experiment. At the end of the incubation, […] (Electron Microscopy, cat #15710) was slowly added to each well and the plate was incubated at room temperature (RT) for 30 minutes to fix cells. Cells were then permeabilized by incubating with 50 μL/well of wash buffer (1×PBS with 0.1% Triton X-100) 5×5 minutes, followed by 1 hour blocking with 30 μL/well of Odyssey blocking buffer (Li-COR, cat #927-40000), at RT. Anti-phosphor RB antibody (Cell signaling 8516S) was diluted 1:1000 in Odyssey blocking buffer and 20 μL was added to all wells and incubated overnight in 4° C. with gently rocking. The next day, cells were washed 5×5 min with 50 μL/well of wash buffer, followed with 1 hour incubation with secondary antibody and DRAQ5 diluted in Odyssey blocking buffer (1:500 dilution for secondary antibody and 1:2000 dilution for DRAQ5), 5×5 min washes, and one last wash with water. Plates were dried in 37° C. oven for 5 minutes and scanned using Li-COR Odyssey CLx imaging system to acquire intensities at 700 and 800 nm channels.

Row | Compound | IC50 [1] [nM] | IC50 [2] [nM]
1 | C[C@@H]1CN(S(=O)(=O)c2c[nH]cn2)CC[C@@H]1Nc1ncc(C(F)(F)F)c(-c2cc(C#N)c(C(C)(C)O)s2)n1 [Example 120, 5-(2-(((3R,4S)-1-((1H-imidazol-4-yl)sulfonyl)-3-methylpiperidin-4-yl)amino)-5-(trifluoromethyl)pyrimidin-4-yl)-2-(2-hydroxypropan-2-yl)thiophene-3-carbonitrile] | ≤ 100 | ≤ 100
2 | C[C@@H]1CN(S(=O)(=O)c2cn(C)cn2)CC[C@@H]1Nc1ncc(C(F)(F)F)c(-c2cc(C#N)c(C(C)(C)O)s2)n1 [Example 121, 2-(2-hydroxypropan-2-yl)-5-(2-(((3R,4S)-3-methyl-1-((1-methyl-1H-imidazol-4-yl)sulfonyl)piperidin-4-yl)amino)-5-(trifluoromethyl)pyrimidin-4-yl)thiophene-3-carbonitrile] | ≤ 100 | 100 to 500
3 | C[C@@H]1CN(S(=O)(=O)c2cnn(C)c2)CC[C@@H]1Nc1ncc(C(F)(F)F)c(-c2cc(C#N)c(C(O)C(F)(F)F)s2)n1 (stereo partly drawn) [Example 123, 5-(2-(((3R,4S)-3-methyl-1-((1-methyl-1H-pyrazol-4-yl)sulfonyl)piperidin-4-yl)amino)-5-(trifluoromethyl)pyrimidin-4-yl)-2-(2,2,2-trifluoro-1-hydroxyethyl)thiophene-3-carbonitrile] | ≤ 100 | ≤ 100
4 | CC(C)(O)Cc1sc(-c2nc(NC3CCN(S(C)(=O)=O)CC3)ncc2C(F)(F)F)cc1C#N [Example 124, 2-(2-hydroxy-2-methylpropyl)-5-(2-((1-(methylsulfonyl)piperidin-4-yl)amino)-5-(trifluoromethyl)pyrimidin-4-yl)thiophene-3-carbonitrile] | ≤ 100 | ≤ 100
5 | Cn1cc(S(=O)(=O)N2CCC(Nc3ncc(C(F)(F)F)c(-c4cc(C#N)c(CC(C)(C)O)s4)n3)CC2)cn1 [Example 125, 2-(2-hydroxy-2-methylpropyl)-5-(2-((1-((1-methyl-1H-pyrazol-4-yl)sulfonyl)piperidin-4-yl)amino)-5-(trifluoromethyl)pyrimidin-4-yl)thiophene-3-carbonitrile] | ≤ 100 | 100 to 500
6 | Cn1cnc(S(=O)(=O)N2CC[C@@H](Nc3ncc(C(F)(F)F)c(-c4cc(C#N)c(CC(C)(C)O)s4)n3)[C@H](F)C2)c1 [Example 127, 5-(2-(((3R,4R)-3-fluoro-1-((1-methyl-1H-imidazol-4-yl)sulfonyl)piperidin-4-yl)amino)-5-(trifluoromethyl)pyrimidin-4-yl)-2-(2-hydroxy-2-methylpropyl)thiophene-3-carbonitrile] | ≤ 100 | ≤ 100
7 | Cn1cc(S(=O)(=O)N2CC[C@@H](Nc3ncc(C(F)(F)F)c(-c4cc(C(N)=O)ns4)n3)[C@H](F)C2)cn1 [Example 128, 5-(2-(((3R,4R)-3-fluoro-1-((1-methyl-1H-pyrazol-4-yl)sulfonyl)piperidin-4-yl)amino)-5-(trifluoromethyl)pyrimidin-4-yl)isothiazole-3-carboxamide] | ≤ 100 | ≤ 100
8 | C[C@@H]1CN(S(=O)(=O)c2cn(C)cn2)CC[C@@H]1Nc1ncc(C(F)(F)F)c(-c2ncc(C(C)(C)O)s2)n1 [Example 133, 2-(2-(2-(((3R,4S)-3-methyl-1-((1-methyl-1H-imidazol-4-yl)sulfonyl)piperidin-4-yl)amino)-5-(trifluoromethyl)pyrimidin-4-yl)thiazol-5-yl)propan-2-ol] | ≤ 100 | ≤ 100
9 | CC(C)(O)Cc1cnc(-c2nc(N[C@@H]3CCN(S(C)(=O)=O)C[C@H]3F)ncc2C(F)(F)F)s1 [Example 135, 1-(2-(2-(((3R,4R)-3-fluoro-1-(methylsulfonyl)piperidin-4-yl)amino)-5-(trifluoromethyl)pyrimidin-4-yl)thiazol-5-yl)-2-methylpropan-2-ol] | ≤ 100 | 100 to 500
10 | Cn1cnc(S(=O)(=O)N2CC[C@H](Nc3ncc(C(F)(F)F)c(-c4ncc(CC(C)(C)O)s4)n3)[C@H](F)C2)c1 [Example 136, 1-(2-(2-(((3R,4S)-3-fluoro-1-((1-methyl-1H-imidazol-4-yl)sulfonyl)piperidin-4-yl)amino)-5-(trifluoromethyl)pyrimidin-4-yl)thiazol-5-yl)-2-methylpropan-2-ol] | ≤ 100 | ≤ 100
11 | CC(C)(O)Cc1cnc(-c2nc(N[C@H]3CCN(S(=O)(=O)c4cn[nH]c4)C[C@H]3F)ncc2C(F)(F)F)s1 [Example 137, 1-(2-(2-(((3R,4S)-1-((1H-pyrazol-4-yl)sulfonyl)-3-fluoropiperidin-4-yl)amino)-5-(trifluoromethyl)pyrimidin-4-yl)thiazol-5-yl)-2-methylpropan-2-ol] | ≤ 100 | ≤ 100
12 | C[C@@H]1CN(S(=O)(=O)c2cn(C)cn2)CC[C@@H]1Nc1ncc(C(F)(F)F)c(-c2ncc(C(O)C(F)F)s2)n1 (stereo partly drawn) [Example 139, 2,2-difluoro-1-(2-(2-(((3R,4S)-3-methyl-1-((1-methyl-1H-imidazol-4-yl)sulfonyl)piperidin-4-yl)amino)-5-(trifluoromethyl)pyrimidin-4-yl)thiazol-5-yl)ethan-1-ol] | ≤ 100 | ≤ 100

Continued, values first:

Row | IC50 [1] [nM] | IC50 [2] [nM] | Compound
13 | ≤ 100 | ≤ 100 | CS(=O)(=O)N1CCC(Nc2ncc(C(F)(F)F)c(-c3cc(C#N)c(C(O)C(F)(F)F)s3)n2)CC1 (stereo not drawn) [Example 122, 5-(2-((1-(methylsulfonyl)piperidin-4-yl)amino)-5-(trifluoromethyl)pyrimidin-4-yl)-2-(2,2,2-trifluoro-1-hydroxyethyl)thiophene-3-carbonitrile]
14 | ≤ 100 | ≤ 100 | Cn1cc(S(=O)(=O)N2CC[C@@H](Nc3ncc(C(F)(F)F)c(-c4cc(C#N)c(CC(C)(C)O)s4)n3)[C@H](F)C2)cn1 [Example 126, 5-(2-(((3R,4R)-3-fluoro-1-((1-methyl-1H-pyrazol-4-yl)sulfonyl)piperidin-4-yl)amino)-5-(trifluoromethyl)pyrimidin-4-yl)-2-(2-hydroxy-2-methylpropyl)thiophene-3-carbonitrile]
15 | ≤ 100 | ≤ 100 | Cn1cc(S(=O)(=O)N2CC[C@H](Nc3ncc(C(F)(F)F)c(-c4cc(C(N)=O)ns4)n3)[C@H](F)C2)cn1 [Example 129, 5-(2-(((3R,4S)-3-fluoro-1-((1-methyl-1H-pyrazol-4-yl)sulfonyl)piperidin-4-yl)amino)-5-(trifluoromethyl)pyrimidin-4-yl)isothiazole-3-carboxamide]
16 | ≤ 100 | 100 to 500 | CC(C)(O)Cc1sc(-c2nc(NC3CCN(S(C)(=O)=O)CC3)ncc2C(F)(F)F)cc1C(N)=O [Example 130, 2-(2-hydroxy-2-methylpropyl)-5-(2-((1-(methylsulfonyl)piperidin-4-yl)amino)-5-(trifluoromethyl)pyrimidin-4-yl)thiophene-3-carboxamide]
17 | ≤ 100 | ≤ 100 | CS(=O)(=O)N1CCC(Nc2ncc(C(F)(F)F)c(-c3ncc(C(O)C(F)F)s3)n2)CC1 (stereo not drawn) [Example 134, 2,2-difluoro-1-(2-(2-((1-(methylsulfonyl)piperidin-4-yl)amino)-5-(trifluoromethyl)pyrimidin-4-yl)thiazol-5-yl)ethan-1-ol]
18 | ≤ 100 | ≤ 100 | C[C@@H]1CN(S(=O)(=O)c2cnn(C)c2)CC[C@@H]1Nc1ncc(C(F)(F)F)c(-c2ncc(C(O)C(F)F)s2)n1 (stereo partly drawn) [Example 138, 2,2-difluoro-1-(2-(2-(((3R,4S)-3-methyl-1-((1-methyl-1H-pyrazol-4-yl)sulfonyl)piperidin-4-yl)amino)-5-(trifluoromethyl)pyrimidin-4-yl)thiazol-5-yl)ethan-1-ol]
